The source of these data is US20180311236A1 (AB SCIENCE, priority 2015, published 2018).

The test system of data set [1] is Tyrosine Hydroxylase in total brain protein extract. In words: MPTP mouse model of Parkinson's disease: tyrosine hydroxylase western blotting. The conditions noted are these: MPTP alone (4 × 20 mg/kg, solvent-treated), control = 100.
Procedure: Each treated group included 10 animals for the MPTP intoxicated groups and 5 animals for the controls.
(§1) C57BL/6J mice are intoxicated with MPTP using an acute protocol, as described hereafter. On the day of MPTP exposure each mouse received 4 injections of MPTP solution (20 mg/kg) at 2-hour intervals for 1 day.
Before brain extraction mice were perfused with 0.9% NaCl 2.6 mM EDTA solution.
And the right brain was immediately frozen in nitrogen liquid for protein analysis. The proteins were extracted with the homogenizer ultra turrax IKA-T10 basic system and quantified using the BCA test (bicinchoninic acid assay).
30 μg of total brain protein were used for western blot analysis using 1:1000 dilution anti-tyrosine hydroxylase rabbit polyclonal antibody (Cat #AB152, Millipore) followed by 1:10000 horseradish peroxidase-conjugated anti-rabbit antibody (Jakson ImmunoResearch). Antibody to actin (Cat #A5316, Sigma Aldrich) were used as loading control followed by 1:10000 horseradish peroxidase-conjugated anti-mouse antibody (Jakson ImmunoResearch). Immunoreactive bands were detected using enhanced chemiluminescent reagents (GE Healthcare, Amersham, UK). Signal intensity was calculated using the Image J software.
A further data set deals with C57BL/6 mice. In words: Mortality after MPTP intoxication. It is filed as in vivo, mouse. The conditions noted are these: 24 hours after treatment by the MPTP (4 injections of 20 mg/kg at 2-hour intervals). From the text: Brain samples were collected after mice anesthesia and sacrifice.
Data set [2] deals with human cord blood mast cells. The conditions noted are these: cited from earlier work.
For data set [3], the system named is Monoamine oxidase activity from total brain protein extract. Kind of data set: MPTP mouse model: monoamine oxidase fluorometric assay. The conditions noted are these: MPTP + masitinib 2 × 5 mg/kg, control = 100, MPTP = 108.
Procedure: (§2) Each treated group included 10 animals for the MPTP intoxicated groups and 5 animals for the controls. The loss of tyrosine hydroxylase expression, indicative of dopaminergic neuron destruction, was analyzed by western blotting, immunohistochemistry and ELISA assay.
This stock solution was defrosted before treatment of mice. The mice were treated orally by gavage with 0.1 ml corresponding to 25 mg/kg in a 24 g mouse.
as §1
(§3) Dosing was done 2 times per day at 6-hour interval starting day 7 before intoxication and stopping 7 days after MPTP administration. […] Before brain extraction mice were perfused with 0.9% NaCl 2.6 mM EDTA solution.
(§4) The treatment started 7 days before MPTP administration and continued 7 days after.
(§5) After mouse sacrifice and dissection, the left brain was submerged in 4% paraformaldehyde in PBS (phosphate buffered saline) solution for paraffin embedding and then cut into 5 μM-thick coronal section. And the right brain was immediately frozen in nitrogen liquid for protein analysis. The proteins were extracted with the homogenizer ultra turrax IKA-T10 basic system and quantified using the BCA test (bicinchoninic acid assay).
The subject of data set [4] is Ba/F3 cells expressing PDGFR-α. The conditions noted are these: read-out: IC50, PDGF-BB-stimulated proliferation and PDGFR-α tyrosine phosphorylation; cited from earlier work.
Data set [5] relates to Tyrosine Hydroxylase in total brain protein extract. Kind of data set: MPTP mouse model of Parkinson's disease: tyrosine hydroxylase ELISA assay.
Procedure: as §2
The mice were treated orally by gavage with 0.1 ml corresponding to 25 mg/kg in a 24 g mouse.
as §1, §3, §4, §5
The microliter plate wells were coated overnight at 4° C. with 5μg of total brain protein extract. […]
For data set [6], the system named is tyrosine hydroxylase in coronal brain sections. Kind of data set: MPTP mouse model of Parkinson's disease: tyrosine hydroxylase immunohistochemistry. It is filed as in vivo. As to conditions: immunohistochemistry on 5 μm-thick coronal sections; MPTP + masitinib 2 × 5 mg/kg.

Take `CN1CC=C(c2ccccc2)CC1` [MPTP, 1-methyl-4-phenyl-1,2,3,6-tetrahydropyridine]: the “Relative average expression of tyrosine hydroxylase” value in data set [1] is on record as 77. The mortality result in the data set on C57BL/6 mice is on record as “No mortality”.
Consider `Cc1ccc(NC(=O)c2ccc(CN3CCN(C)CC3)cc2)cc1Nc1nc(-c2cccnc2)cs1` [Masitinib, 4-(4-methylpiperazin-l-ylmethyl)-N-[4-methyl-3-(4-pyridin-3ylthiazol-2-ylamino)phenyl]benzamide], for which the FcϵRI-mediated degranulation entry in data set [2] was “inhibition”. Further, the “Monoamine oxidase fluorometric assay” value in data set [3] is “maintained”. Besides, the IC50 in data set [4] was 300 ± 5 nM. The “Mean expression of tyrosine hydroxylase” value is “significant attenuation” in data set [5] (MPTP + masitinib 2 × 5 mg/kg per os, day -7 to day 7, control = 0.275, MPTP = 0.175, 5 mg/kg) and “did not modify significantly” in data set [5] (masitinib alone 2 × 30 mg/kg per os, no MPTP, control = 0.275, 30 mg/kg). In data set [6], the “in situ staining of tyrosine hydroxylase” value is given as “positive effect”.
